Where two headings read alike, the source gives them in different places.
Assays:
human 5-HT1E receptor [1] = target: T1, human 5-HT1E receptor (Homo sapiens, UniProt P28566); assay: [3H]5-HT displacement binding, membranes of Ltk- cells transfected with cloned 5-HT1E receptor; parameters: The entire coding region of clone hp75d was cloned into the eukaryotic expression vector pcEXV-3; expressed in transfected cells; host or cells: Ltk- mouse fibroblast cells (line 5-HT1E-7, ATCC CRL 10913, plasmid pcEXV-hp75d); conditions: for affinity (in words): displacement of [3H]5-HT specific binding; for decrease of affinity relative to serotonin: substitution or removal of the 5-hydroxy group
Description: Membranes were prepared from transfected Ltk^- cells which were grown to 100% confluency. The cells were washed twice with phosphate-buffered saline, scraped from the culture dishes into 5 ml of ice-cold phosphate-buffered saline, and centrifuged at 200×g for 5 min at 4° C. The pellet was resuspended in 2.5 ml of ice-cold Tris buffer (20 mM Tris -HCl, pH 7.4 at 23° C., 5 mM EDTA) and homogenized by a Wheaton tissue grinder. The lysate was subsequently centrifuged at 200×g for 5 min at 4° C. to pellet large fragments which were discarded. The supernatant was collected and centrifuged at 40,000× g for 20 min at 4° C. The pellet resulting from this centrifugation was washed once in ice-cold Tris buffer and finally resuspended in a final buffer containing 50 mM Tris-HCl and 0.5 mM EDTA, pH 7.4 at 23° C. Membrane preparations were kept on ice and utilized within two hours for the radioligand binding assays.
The binding profile of drugs in competition experiments was accomplished using 10-12 concentrations of compound. Incubation times were 30 min for both saturation and displacement studies based upon initial investigations which determined equilibrium binding conditions. […] Binding was initiated by the addition of 50 μl membrane homogenates (10-20 μg). The reaction was terminated by rapid filtration through presoaked (0.5% polyethyleneimine) filters using 48R Cell Brandel Harvester (Gaithersburg, Md.). Subsequently, filters were washed for 5 seconds with ice cold buffer (50 mM Tris HCL, pH 7.4 at 4° C.), dried and placed into vials containing 2.5 ml of Readi-Safe (Beckman, Fullerton, Calif.) and radioactivity was measured using a Beckman LS 5000TA liquid scintillation counter. […] Binding data was analyzed by computer-assisted nonlinear regression analysis (Accufit and Accucomp, Lundon Software, Chagrin Falls, Ohio). […] All experiments were performed in triplicate.

5-HT1E binding site = conditions: native site, human cortical tissue; cited from earlier work
human 5-HT1E receptor [2] = target: T1, human 5-HT1E receptor; conditions: forskolin-stimulated cAMP
Description: Transfected Y1 cells (expression level=688 fmol/mg of protein) were incubated in DMEM, 5 mM theophylline, 10 mM Hepes (4-[2-Hydroxyethyl]-1-piperazineethanesulfonic acid), 10 μM pargyline, for 20 minutes at 37° C., 5% CO2. […] Subsequently, the cells were incubated for an additional 10 minutes at 37° C., 5% CO2. The media was aspirated and the reaction terminated by the addition of 100 mM HCl. The plates were stored at 4° C. for 15 minutes and centrifuged for 5 minutes (500×g at 4° C.) to pellet cellular debris. Aliquots of the supernatant fraction were then stored at -20° C. prior to assessment of cAMP formation by radioimmunoassay (cAMP Radioimmunoassay kit, Advanced Magnetics, Cambridge, Mass.).

human 5-HT1E receptor [3] = assay: Inhibition of [3H]5-HT specific binding by Gpp(NH)p (G-protein coupling); conditions: inhibition of specific binding of [3H]5-HT
[4] = displacement of 4.5-5.5 nM [3H]5-HT, 37° C., 30 min, Table 1, read-out: Ki

T1 sequence (P28566 whole entry): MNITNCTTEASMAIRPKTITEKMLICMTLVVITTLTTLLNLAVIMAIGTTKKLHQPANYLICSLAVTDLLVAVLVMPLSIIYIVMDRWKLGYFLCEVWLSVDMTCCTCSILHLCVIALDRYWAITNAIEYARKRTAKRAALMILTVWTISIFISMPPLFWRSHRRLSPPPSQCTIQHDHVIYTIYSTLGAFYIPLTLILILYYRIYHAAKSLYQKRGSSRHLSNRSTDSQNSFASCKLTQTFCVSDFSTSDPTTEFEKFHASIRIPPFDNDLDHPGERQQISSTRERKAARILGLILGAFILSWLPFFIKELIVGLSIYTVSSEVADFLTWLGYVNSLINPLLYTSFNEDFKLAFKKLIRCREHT

Q: For c1ccc2c(N3CCNCC3)cccc2c1 [1-Napthylpiperazine], which Ki (human 5-HT1E receptor [1]; [4]) is on record?
A: 0.207 ± 0.069 µM

Q: What about the Ki (human 5-HT1E receptor [1]; read-out: Ki values) of the same molecule?
A: 0.207 µM

Q: With Cc1[nH]c2ccc(O)cc2c1CCN [2-Methyl-5-HT] as the molecule, how does the Ki (human 5-HT1E receptor [1]; [4]) read?
A: 0.817 ± 0.203 µM

Q: What does the source list for NCCc1c[nH]c2ccc(C(N)=O)cc12 [5-CT, 5-carboxyamidotryptamine]?
A: Ki (human 5-HT1E receptor [1]; [4]): 7.88 ± 0.284 µM; affinity (in words) (human 5-HT1E receptor [1]): low affinity; decrease of affinity relative to serotonin (human 5-HT1E receptor [1]): 300 fold; affinity (in words) (5-HT1E binding site): low affinity

Q: Which “affinity (in words)” value (human 5-HT1E receptor [1]) does the source give for NCCc1c[nH]c2ccc(O)cc12 [5-HT, 5-hydroxytryptamine] here?
A: highest affinity

Q: And the “maximum inhibition of cAMP production” value (human 5-HT1E receptor [2])?
A: 32%

Q: What does the source list for COc1ccc2[nH]cc(CCN)c2c1 [5-Methoxytryptamine]?
A: Ki (human 5-HT1E receptor [1]; [4]): 3.15 ± 1.04 µM; decrease of affinity relative to serotonin (human 5-HT1E receptor [1]): 300 fold

Q: What does the source list for CCCN(CCC)C1CCc2cccc(O)c2C1 (centres unmarked) [8-OH-DPAT]?
A: Ki (human 5-HT1E receptor [1]; [4]): 3.33 ± 0.31 µM; affinity (in words) (human 5-HT1E receptor [1]): very poor affinity

Q: Which results are given for COc1cc(CC(C)N)c(OC)cc1I (centres unmarked) [DOI]?
A: Ki (human 5-HT1E receptor [1]; [4]): 2.97 ± 0.592 µM; affinity (in words) (human 5-HT1E receptor [1]): very poor affinity

Q: Which Ki (human 5-HT1E receptor [1]) does the source give for CCCN(CCC)CCc1c[nH]c2ccc(C(N)=O)cc12 [DP-5-CT] here?
A: > 10 µM

Q: With C[C@@H](CO)NC(=O)[C@@H]1C=C2c3cccc4[nH]cc(c34)C[C@H]2N(C)C1 [Ergonovine] as the molecule, how does the Ki (human 5-HT1E receptor [1]) read?
A: 0.0877 ± 0.0076 µM

Q: For CN1C[C@H](C(=O)N[C@]2(C)O[C@@]3(O)[C@@H]4CCCN4C(=O)[C@H](Cc4ccccc4)N3C2=O)C=C2c3cccc4[nH]cc(c34)C[C@H]21 [Ergotamine], which Ki (human 5-HT1E receptor [1]; [4]) is on record?
A: 0.599 ± 0.039 µM

Q: What about the “affinity (in words)” value (5-HT1E binding site) of the same molecule?
A: low affinity

Q: With Nc1nc2c(ncn2[C@@H]2O[C@H](COP(=O)(O)OP(=O)(O)NP(=O)(O)O)[C@@H](O)[C@H]2O)c(=O)[nH]1 [Gpp(NH)p] as the molecule, how does the IC50 (human 5-HT1E receptor [3]) read?
A: 1.89 ± 0.556 µM

Q: What about the Imax (human 5-HT1E receptor [3]) of the same molecule?
A: 26.4±5.6%

Q: For O=C(c1ccc(F)cc1)C1CCN(CCn2c(=O)[nH]c3ccccc3c2=O)CC1 [Ketanserin], which “affinity (in words)” value (human 5-HT1E receptor [1]) is on record?
A: very poor affinity

Q: With Nc1ccc(CCN2CCN(c3cccc(C(F)(F)F)c3)CC2)cc1 [LY-165163 (PAPP)] as the molecule, how does the Ki (human 5-HT1E receptor [1]) read?
A: > 10 µM

Q: With CN1C[C@H](CO)C=C2c3cccc4[nH]cc(c34)C[C@H]21 [Lysergol] as the molecule, how does the Ki (human 5-HT1E receptor [1]; [4]) read?
A: 0.0428 ± 0.0053 µM

Q: What does the source list for CSc1ccc2c(c1)C(N1CCN(C)CC1)Cc1ccccc1S2 (centres unmarked) [Methiothepin]?
A: Ki (human 5-HT1E receptor [1]; [4]): 0.194 ± 0.004 µM; Ki (human 5-HT1E receptor [1]; read-out: Ki values): 0.194 µM

Q: With CC[C@@H](CO)NC(=O)[C@@H]1C=C2c3cccc4[nH]cc(c34)C[C@H]2N(C)C1 [Methylergonovine] as the molecule, how does the Ki (human 5-HT1E receptor [1]; [4]) read?
A: 0.0894 ± 0.0042 µM

Q: With CC[C@@H](CO)NC(=O)[C@@H]1C=C2c3cccc4c3c(cn4C)C[C@H]2N(C)C1 [Methysergide] as the molecule, how does the Ki (human 5-HT1E receptor [1]; [4]) read?
A: 0.228 ± 0.016 µM

Q: Which Ki (human 5-HT1E receptor [1]; [4]) does the source give for Cc1cc(C(C)(C)C)c(O)c(C)c1CC1=NCCN1 [Oxymetazoline] here?
A: 0.419 ± 0.049 µM

Q: For CC(C)NCC(O)COc1cccc2[nH]ccc12 (centres unmarked) [Pindolol], which “affinity (in words)” value (human 5-HT1E receptor [1]) is on record?
A: very poor affinity

Q: Which Ki (human 5-HT1E receptor [1]) does the source give for COC(=O)[C@H]1[C@H]2C[C@H]3c4[nH]c5ccccc5c4CCN3C[C@H]2CC[C@@H]1O [Rauwolscine] here?
A: 3.43 ± 0.102 µM

Q: For O=C(CCCN1CCC2(CC1)C(=O)NCN2c1ccccc1)c1ccc(F)cc1 [Spiperone], which Ki (human 5-HT1E receptor [1]; [4]) is on record?
A: 5.05 ± 0.689 µM

Q: What about the “affinity (in words)” value (human 5-HT1E receptor [1]) of the same molecule?
A: very poor affinity

Q: With FC(F)(F)c1cccc(N2CCNCC2)c1 [TFMPP] as the molecule, how does the Ki (human 5-HT1E receptor [1]; [4]) read?
A: 6.29 ± 0.259 µM

Q: Which results are given for NCCc1c[nH]c2ccccc12 [Tryptamine]?
A: Ki (human 5-HT1E receptor [1]; [4]): 2.56 ± 0.827 µM; decrease of affinity relative to serotonin (human 5-HT1E receptor [1]): 300 fold

Q: For COC(=O)[C@@H]1[C@H]2C[C@H]3c4[nH]c5ccccc5c4CCN3C[C@@H]2CC[C@@H]1O [Yohimbine], which Ki (human 5-HT1E receptor [1]; [4]) is on record?
A: 1.27 ± 0.233 µM

Q: With COc1cc(N)c(Cl)cc1C(=O)NC1CN2CCC1CC2 (centres unmarked) [Zacopride] as the molecule, how does the “affinity (in words)” value (human 5-HT1E receptor [1]) read?
A: very poor affinity

Source: US5476782A, “DNA encoding a human 5-HT1E receptor and uses thereof” (Synaptic Pharmaceutical Corporation, priority 1995, dated 1995)
